According to patent US9669034B2, “4-aryl-N-phenyl-1,3,5-triazin-2-amines containing a sulfoximine group” (BAYER INTELLECTUAL PROPERTY GMBH, priority 2011, dated 2017):
Like-named read-outs stand apart in the source and are kept apart here.

What was measured:
CDK9/CycT1 = CDK9/CycT1 (Homo sapiens (Human), UniProt P50750); assay: CDK9/CycT1 kinase assay (TR-FRET); assay type: biochemical; conditions: Method 1
Outline: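 Recombinant full-length His-tagged human CDK9/CycT1, insect-cell expressed and Ni-NTA purified. Substrate is a biotinylated peptide (biotin-Ttds-linked). Kinase inhibition is read out by TR-FRET.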

CDK2/CycE = CDK2/CycE (Homo sapiens (Human), UniProt P24941); assay: CDK2/CycE kinase assay (TR-FRET); assay type: biochemical; conditions: Method 2
Outline: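 Enzyme was GST-tagged human CDK2 with GST-tagged human CycE, expressed in Sf9 insect cells and glutathione-affinity purified. The kinase reaction used a biotinylated peptide substrate, with inhibition measured by TR-FRET.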

[1] = test system: HeLa human cervical tumour cells; assay: Proliferation assay (crystal violet), HeLa; assay type: cell-based; conditions: Method 3, read-out: Inhibition of HeLa cell proliferation, IC50
Outline: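 4-day compound exposure ([…]; DMSO 0.5%) starting 24 h post-plating. Densities: NCI-H460 and HeLa 3000, HeLa-MaTu-ADR 5000, Caco-2 1500 cells/well; 10% FCS. Glutaraldehyde fix, crystal violet stain, A595.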

[2] = test system: HeLa-MaTu-ADR, multidrug-resistant human cervical carcinoma cells; assay: Proliferation assay (crystal violet), HeLa-MaTu-ADR; assay type: cell-based; conditions: Method 3, read-out: Inhibition of HeLa/MaTu/ADR cell proliferation, IC50
Protocol: (§1) Cultivated tumour cells (NCI-H460, human non-small cell lung carcinoma cells, ATCC HTB-177; DU145, hormone-independent human prostate carcinoma cells, ATCC HTB-81; HeLa-MaTu, human cervical carcinoma cells, EPO-GmbH, Berlin; HeLa-MaTu-ADR, multidrug-resistant human cervical carcinoma cells, EPO-GmbH, Berlin; HeLa human cervical tumour cells, ATCC CCL-2; Caco-2 human colorectal carcinoma, ATCC HTB-37; B16F10 mouse melanoma cells, ATCC CRL-6475) were plated at a density of 5000 cells/well (DU145, HeLa-MaTu-ADR), 3000 cells/well (NCI-H460, HeLa-MaTu, HeLa), 1500 cells/well (Caco-2), or 1000 cells/well (B16 F10) in a 96-well multititer plate in 200 μL of their respective growth medium supplemented 10% fetal calf serum. After 24 hours, the cells of one plate (zero-point plate) were stained with crystal violet (see below), while the medium of the other plates was replaced by fresh culture medium (200 μL), to which the test substances were added in various concentrations (0 M, as well as in the range of […]; the final concentration of the solvent dimethylsulfoxide was 0.5%). The cells were incubated for 4 days in the presence of test substances. Cell proliferation was determined by staining the cells with crystal violet: the cells were fixed by adding 20 μL/measuring point of an 11% glutaric aldehyde solution for 15 minutes at room temperature. After three washing cycles of the fixed cells with water, the plates were dried at room temperature. The cells were stained by adding 100 μL/measuring point of a 0.1% crystal violet solution (pH 3.0). After three washing cycles of the stained cells with water, the plates were dried at room temperature. The dye was dissolved by adding 100 μL/measuring point of a 10% acetic acid solution. The absorbance was determined by photometry at a wavelength of 595 nm. The change of cell number, in percent, was calculated by normalization of the measured values to the absorbance values of the zero-point plate (=0%) and the absorbance of the untreated (0 M) cells (=100%). The IC50 values were determined by means of a 4 parameter fit.

[3] = test system: NCI-H460, human non-small cell lung carcinoma cells; assay: Proliferation assay (crystal violet), NCI-H460; assay type: cell-based; conditions: Method 3, read-out: Inhibition of NCI-H460 cell proliferation, IC50
Protocol: as §1

[4] = test system: DU145, hormone-independent human prostate carcinoma cells; assay: Proliferation assay (crystal violet), DU145; assay type: cell-based; conditions: Method 3, read-out: Inhibition of DU145 cell proliferation, IC50
Protocol: as §1

[5] = test system: Caco-2 human colorectal carcinoma; assay: Proliferation assay (crystal violet), Caco-2; assay type: cell-based; conditions: Method 3, read-out: Inhibition of Caco-2 cell proliferation, IC50
Protocol: as §1

[6] = test system: B16F10 mouse melanoma cells; assay: Proliferation assay (crystal violet), B16F10; assay type: cell-based; conditions: Method 3, read-out: Inhibition of B16F10 cell proliferation, IC50
Protocol: as §1

[7] = Homo sapiens, NCI-H460, NCI-H460 cells
[8] = Homo sapiens, DU-145, DU145 cells
[9] = Homo sapiens, Caco-2, Caco-2 cells
[10] = Mus musculus, B16-F10, B16F10 cells

CDK9/CycT1, sequence (P50750 whole entry): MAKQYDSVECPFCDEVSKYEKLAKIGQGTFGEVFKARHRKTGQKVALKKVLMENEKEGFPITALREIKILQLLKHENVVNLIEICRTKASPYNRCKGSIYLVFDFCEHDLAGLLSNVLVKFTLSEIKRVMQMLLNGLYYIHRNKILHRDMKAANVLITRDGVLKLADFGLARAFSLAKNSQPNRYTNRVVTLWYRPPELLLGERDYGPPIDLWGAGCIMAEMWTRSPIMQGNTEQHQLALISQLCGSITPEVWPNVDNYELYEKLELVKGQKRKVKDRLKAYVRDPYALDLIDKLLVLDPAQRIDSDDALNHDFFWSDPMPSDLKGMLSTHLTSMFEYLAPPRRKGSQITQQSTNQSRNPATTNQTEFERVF
CDK9/CycT1, sequence (O60563 whole entry partner): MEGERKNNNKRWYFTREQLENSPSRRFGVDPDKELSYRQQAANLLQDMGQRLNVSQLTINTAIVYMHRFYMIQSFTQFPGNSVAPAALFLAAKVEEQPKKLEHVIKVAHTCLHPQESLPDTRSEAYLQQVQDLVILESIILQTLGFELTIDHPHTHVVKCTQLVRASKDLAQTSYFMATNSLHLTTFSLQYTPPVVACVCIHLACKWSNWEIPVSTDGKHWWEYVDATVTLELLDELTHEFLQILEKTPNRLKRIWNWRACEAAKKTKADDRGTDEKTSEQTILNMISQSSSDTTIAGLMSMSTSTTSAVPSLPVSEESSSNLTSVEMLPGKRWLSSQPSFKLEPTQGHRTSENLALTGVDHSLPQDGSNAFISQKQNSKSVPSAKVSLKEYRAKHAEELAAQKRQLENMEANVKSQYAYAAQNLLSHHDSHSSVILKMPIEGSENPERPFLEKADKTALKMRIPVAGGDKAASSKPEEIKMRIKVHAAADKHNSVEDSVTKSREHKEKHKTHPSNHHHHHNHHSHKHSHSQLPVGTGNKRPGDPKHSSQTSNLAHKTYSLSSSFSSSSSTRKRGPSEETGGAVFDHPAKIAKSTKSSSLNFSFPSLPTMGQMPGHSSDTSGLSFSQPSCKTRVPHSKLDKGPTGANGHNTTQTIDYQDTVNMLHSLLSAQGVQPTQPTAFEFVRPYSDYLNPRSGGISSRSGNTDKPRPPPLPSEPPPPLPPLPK

Structure (SMILES)	IC50 (CDK9/CycT1) [nM]	IC50 (CDK2/CycE) [nM]	IC50 ([1]; Homo sapiens, HeLa) [nM]	IC50 ([2]; Homo sapiens, HeLa) [nM]	IC50 [3, 7] [nM]	IC50 [4, 8] [nM]	IC50 [5, 9] [nM]	IC50 [6, 10] [nM]	IC50 [1] [nM]	IC50 [2] [nM]	IC50 ([3]; NCI-H460 cells) [nM]	IC50 ([4]; DU145 cells) [nM]	IC50 ([5]; Caco-2 cells) [nM]	IC50 ([6]; B16F10 cells) [nM]
CNC(=O)N=S(C)(=O)Cc1cccc(Nc2ncnc(-c3ccc(F)cc3OC)n2)c1 (racemic) [Example 15, (rac)-1-[(3-{[4-(4-Fluoro-2-methoxyphenyl)-1,3,5-triazin-2-yl]amino}benzyl)(methyl)oxido-λ^6-sulfanylidene]-3-methylurea]	7	930	390	940	1000	370	1000	620	–	–	–	–	–	–
COc1cc(F)ccc1-c1ncnc(Nc2cc(F)cc(CS(C)(=O)=NC#N)c2)n1 (single isomer, unassigned) [Example 71, [(3-Fluoro-5-{[4-(4-fluoro-2-methoxyphenyl)-1,3,5-triazin-2-yl]amino}benzyl)(methyl)oxido-λ^6-sulfanylidene]cyanamide]	6	230	100	120	160	120	130	110	–	–	–	–	–	–
CS(=N)(=O)Cc1cccc(Nc2ncnc(-c3ccc(F)cc3OCc3ccnc(F)c3)n2)c1 (racemic) [Example 82, (rac)-4-{4-Fluoro-2-[(2-fluoropyridin-4-yl)methoxy]phenyl}-N-{3-[(S-methylsulfonimidoyl)methyl]phenyl}-1,3,5-triazin-2-amine]	7	360	180	190	180	130	180	150	–	–	–	–	–	–
CCOC(=O)N=S(C)(=O)Cc1cccc(Nc2ncnc(-c3ccccc3OCc3ccc(F)cc3)n2)c1 (racemic) [Example 42, (rac)-Ethyl [{3-[(4-{2-[(4-fluorobenzyl)oxy]phenyl}-1,3,5-triazin-2-yl)amino]benzyl}(methyl)oxido-λ^6-sulfanylidene]carbamate]	5	1600	610	520	370	590	680	680	–	–	–	–	–	–
CCOC(=O)N=S(C)(=O)Cc1cccc(Nc2ncnc(-c3cccc4c3OCCO4)n2)c1 (racemic) [Example 37, (rac)-Ethyl [(3-{[4-(2,3-dihydro-1,4-benzodioxin-5-yl)-1,3,5-triazin-2-yl]amino}benzyl)(methyl)oxido-λ^6-sulfanylidene]carbamate]	9	2300	630	750	920	500	810	720	–	–	–	–	–	–
C#CCOc1cc(F)ccc1-c1ncnc(Nc2cccc(CS(C)(=N)=O)c2)n1 (single isomer, unassigned) [Example 79, 4-[4-Fluoro-2-(prop-2-yn-1-yloxy)phenyl]-N-{3-[(S-methylsulfonimidoyl)methyl]phenyl}-1,3,5-triazin-2-amine]	5	440	–	–	–	–	–	–	440	350	420	380	390	370

Continued, values first:

IC50 (CDK9/CycT1) [nM]	IC50 (CDK2/CycE) [nM]	IC50 ([1]; Homo sapiens, HeLa) [nM]	IC50 ([2]; Homo sapiens, HeLa) [nM]	IC50 [3, 7] [nM]	IC50 [4, 8] [nM]	IC50 [5, 9] [nM]	IC50 [6, 10] [nM]	IC50 [1] [nM]	IC50 [2] [nM]	IC50 ([3]; NCI-H460 cells) [nM]	IC50 ([4]; DU145 cells) [nM]	IC50 ([5]; Caco-2 cells) [nM]	IC50 ([6]; B16F10 cells) [nM]	Structure (SMILES)
2	54	110	240	110	120	150	120	–	–	–	–	–	–	CS(=N)(=O)Cc1cccc(Nc2ncnc(-c3ccc(F)cc3OCc3cc(F)c(F)c(F)c3)n2)c1 (racemic) [Example 104, (rac)-4-{4-Fluoro-2-[(3,4,5-trifluorobenzyl)oxy]phenyl}-N-{3-[(S-methylsulfonimidoyl)methyl]phenyl}-1,3,5-triazin-2-amine]
9	380	330	560	230	190	51	280	–	–	–	–	–	–	C=CCOc1cc(F)ccc1-c1ncnc(Nc2cccc(CS(C)(=N)=O)c2)n1 (racemic) [Example 85, (rac)-4-[4-Fluoro-2-(prop-2-en-1-yloxy)phenyl]-N-{3-[(S-methylsulfonimidoyl)methyl]phenyl}-1,3,5-triazin-2-amine]
2	260	170	100	110	110	80	100	–	–	–	–	–	–	CS(=N)(=O)Cc1cccc(Nc2ncnc(-c3ccc(F)cc3OCc3cccc(F)c3)n2)c1 (racemic) [Example 90, (rac)-4-{4-Fluoro-2-[(3-fluorobenzyl)oxy]phenyl}-N-{3-[(S-methylsulfonimidoyl)methyl]phenyl}-1,3,5-triazin-2-amine]
4	500	330	350	360	340	240	340	–	–	–	–	–	–	CS(=N)(=O)Cc1cccc(Nc2ncnc(-c3ccc(F)cc3OCc3cc(F)cc(F)c3F)n2)c1 (racemic) [Example 101, (rac)-4-{4-Fluoro-2-[(2,3,5-trifluorobenzyl)oxy]phenyl}-N-{3-[(S-methylsulfonimidoyl)methyl]phenyl}-1,3,5-triazin-2-amine]
3	180	140	260	120	120	150	130	–	–	–	–	–	–	CS(=N)(=O)Cc1cccc(Nc2ncnc(-c3ccc(F)cc3OCc3cccc(C#N)c3)n2)c1 (racemic) [Example 98, (rac)-3-({5-Fluoro-2-[4-({3-[(S-methylsulfonimidoyl)methyl]phenyl}amino)-1,3,5-triazin-2-yl]phenoxy}methyl)benzonitrile]
3	140	110	71	130	120	81	140	–	–	–	–	–	–	COc1cc(F)ccc1-c1ncnc(Nc2cc(F)c(F)c(CS(C)(=O)=NC#N)c2)n1 (racemic) [Example 105, (rac)-[(2,3-Difluoro-5-{[4-(4-fluoro-2-methoxyphenyl)-1,3,5-triazin-2-yl]amino}benzyl)(methyl)-oxido-λ^6-sulfanylidene]cyanamide]
3	230	110	190	200	140	220	180	–	–	–	–	–	–	CS(=N)(=O)Cc1cccc(Nc2ncnc(-c3ccc(F)cc3OCc3cc(F)cc(Cl)c3)n2)c1 (racemic) [Example 94, (rac)-4-{2-[(3-Chloro-5-fluorobenzyl)oxy]-4-fluorophenyl}-N-{3-[(S-methylsulfonimidoyl)methyl]phenyl}-1,3,5-triazin-2-amine]
